Laboratory results published in patent US8629157B2, “Pyrrolidine compounds which modulate the CB2 receptor” (Boehringer Ingelheim International GmbH, priority 2009, dated 2014).

These compounds were tested against human CB2R (Homo sapiens, UniProt P34972) (assay: CB2R mediated modulation of cAMP synthesis). Settings: not given.
Format: cell-based
How it was run: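 CHO cells expressing human CB2R were treated 30 min at 37° C. with compounds in buffer containing 1 mM IBMX, 0.25% BSA and 10 uM forskolin; cAMP in lysates was measured by DiscoverX-XS kit.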

Chain of human CB2R (P34972 whole entry): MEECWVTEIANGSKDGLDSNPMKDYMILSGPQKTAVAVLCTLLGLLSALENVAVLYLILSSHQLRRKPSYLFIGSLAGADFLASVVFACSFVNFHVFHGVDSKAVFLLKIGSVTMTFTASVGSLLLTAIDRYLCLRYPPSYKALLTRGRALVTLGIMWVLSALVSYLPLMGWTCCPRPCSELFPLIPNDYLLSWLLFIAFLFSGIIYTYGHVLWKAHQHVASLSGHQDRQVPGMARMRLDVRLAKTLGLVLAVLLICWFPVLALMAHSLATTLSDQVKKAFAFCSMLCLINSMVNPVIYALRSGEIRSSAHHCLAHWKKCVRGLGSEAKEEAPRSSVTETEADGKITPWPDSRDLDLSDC

Structure (SMILES)	EC50 [nM]
CC(C)(C)c1cc(NC(=O)[C@@H]2CCC(=O)N2c2ccc([N+](=O)[O-])cc2)no1 [(S)-1-(4-nitro-phenyl)-5-oxo-pyrrolidine-2-carboxylic acid (5-tert-butyl-isoxazol-3-yl)-amide]	21.1
Cc1cc(N2C(=O)CC[C@H]2C(=O)Nc2cc(C(C)(C)C)on2)ccc1Cl [(S)-1-(4-Chloro-3-methyl-phenyl)-5-oxo-pyrrolidine-2-carboxylic acid (5-tert-butyl-isoxazol-3-yl)-amide]	59.4
CC(C)(C)c1cc(NC(=O)[C@@H]2CCCN2CC2CCCCO2)on1 (stereo partly shown) [1-(Tetrahydro-pyran-2-ylmethyl)-pyrrolidine-2-carboxylic acid (3-tert-butyl-isoxazol-5-yl)-amide]	0.172
Cc1cc(N2C(=O)CC[C@H]2C(=O)Nc2cc(C(C)(C)C)no2)ccc1F [(S)-1-(4-Fluoro-3-methyl-phenyl)-5-oxo-pyrrolidine-2-carboxylic acid (3-tert-butyl-isoxazol-5-yl)-amide]	91.2
CC(C)(C)c1cc(NC(=O)[C@@H]2CCC(=O)N2c2ncc(Cl)cn2)on1 [(S)-1-(5-Chloro-pyrimidin-2-yl)-5-oxo-pyrrolidine-2-carboxylic acid (3-tert-butyl-isoxazol-5-yl)-amide]	455
CCc1sc(NC(=O)[C@@H]2C[C@@H](O)CN2CC2CCOCC2)nc1-c1ccccc1 [(2S,4R)-4-Hydroxy-1-(tetrahydro-pyran-4-ylmethyl)-pyrrolidine-2-carboxylic acid (5-ethyl-4-phenyl-thiazol-2-yl)-amide]	7.93
CC(C)(C)c1nnc(NC(=O)[C@@H]2CCCN2CC2CC2)s1 [(S)-1-Cyclopropylmethyl-pyrrolidine-2-carboxylic acid (5-tert-butyl-1,3,4-thiadiazol-2-yl)-amide]	340
CC(C)(C)C1CCC(NC(=O)[C@@H]2CCCN2c2ccc(Cl)cc2)CC1 (stereo partly drawn) [(S)-1-(4-Chloro-phenyl)-pyrrolidine-2-carboxylic acid (4-tert-butyl-cyclohexyl)-amide]	7.42
CC1CC(NC(=O)[C@@H]2CCC(=O)N2c2ccc(Cl)cc2)CC(C)(C)C1 (stereo partly drawn) [(S)-1-(4-Chloro-phenyl)-5-oxo-pyrrolidine-2-carboxylic acid (3,3,5-trimethyl-cyclohexyl)-amide]	212
COCC(C)(C)c1cc(NC(=O)[C@@H]2CCC(=O)N2c2ccc(Cl)cc2)on1 [(S)-l-(4-Chloro-phenyl)-5-oxo-pyrrolidine-2-carboxylic acid [3-(2-methoxy-1,1-dimethyl-ethyl)-isoxazol-5-yl]-amide]	48.7
Cn1nc(C(C)(C)C)cc1NC(=O)C1CCCN1c1ncc(C(F)(F)F)cc1Cl (stereo not shown) [1-(3-Chloro-5-trifluoromethyl-pyridin-2-yl)-pyrrolidine-2-carboxylic acid (5-tert-butyl-2-methyl-2H-pyrazol-3-yl)-amide]	112
O=C(Nc1nc(C(F)(F)F)co1)[C@@H]1CCCN1c1ccc(Cl)cc1 [(S)-1-(4-Chloro-phenyl)-pyrrolidine-2-carboxylic acid (4-trifluoromethyl-oxazol-2-yl)-amide]	5.79
CCc1ccnc(NC(=O)[C@@H]2CCCN2c2ccc(Cl)cc2)c1 [(S)-1-(4-Chloro-phenyl)-pyrrolidine-2-carboxylic acid (4-ethyl-pyridin-2-yl)-amide]	1.2
CC(C)(C)c1cc(NC(=O)[C@@H]2CCCN2C2CC2)on1 [(S)-1-Cyclopropyl-pyrrolidine-2-carboxylic acid (3-tert-butyl-isoxazol-5-yl)-amide]	3.19
CCCN1CCC[C@H]1C(=O)Nc1nc(C(C)(C)C)cs1 [Example 187, (S)-1-Propyl-pyrrolidine-2-carboxylic acid (4-tert-butyl-thiazol-2-yl)-amide]	159
CC(C)(C)c1cc(NC(=O)[C@@H]2C[C@@H](O)CN2C2CCOCC2)no1 [(2S,4R)-4-Hydroxy-1-(tetrahydro-pyran-4-yl)-pyrrolidine-2-carboxylic acid (5-tert-butyl-isoxazol-3-yl)-amide]	363
CC(C)(C)c1cc(NC(=O)[C@@H]2CCC(=O)N2c2cccc(F)c2F)on1 [(S)-1-(2,3-Difluoro-phenyl)-5-oxo-pyrrolidine-2-carboxylic acid (3-tert-butyl-isoxazol-5-yl)-amide]	261
CC(C)(C)c1cc(NC(=O)[C@@H]2CCCN2S(=O)(=O)c2ccc(C(F)(F)F)cc2)no1 [(S)-1-(4-Trifluoromethyl-benzenesulfonyl)-pyrrolidine-2-carboxylic acid (5-tert-butyl-isoxazol-3-yl)-amide]	222

Structure (SMILES)	EC50 [nM]
CC(C)(C)c1cc(NC(=O)[C@@H]2CCCN2C2CCCC2)on1 [(S)-1-Cyclopentyl-pyrrolidine-2-carboxylic acid (3-tert-butyl-isoxazol-5-yl)-amide]	2.39
CC(C)(C)c1cc(NC(=O)[C@@H]2CCCN2c2ncc(Cl)cc2Cl)on1 [(S)-1-(3,5-Dichloro-pyridin-2-yl)-pyrrolidine-2-carboxylic acid (3-tert-butyl-isoxazol-5-yl)-amide]	0.135
COc1ccc(N2C(=O)CC[C@H]2C(=O)Nc2cc(C(C)(C)C)no2)cc1F [(S)-1-(3-Fluoro-4-methoxy-phenyl)-5-oxo-pyrrolidine-2-carboxylic acid (3-tert-butyl-isoxazol-5-yl)-amide]	314
Cc1ccc(NC(=O)[C@@H]2CCCN2c2ccc(Cl)cc2)nc1 [(S)-1-(4-Chloro-phenyl)-pyrrolidine-2-carboxylic acid (5-methyl-pyridin-2-yl)-amide]	120
C=Cc1ccc(N2C(=O)CC[C@H]2C(=O)Nc2cc(C(C)(C)C)no2)cc1 [(S)-5-Oxo-1-(4-vinyl-phenyl)-pyrrolidine-2-carboxylic acid (3-tert-butyl-isoxazol-5-yl)-amide]	20.3
CC(C)(C)c1cc(NC(=O)[C@@H]2CCCN2Cc2ccc(F)c(F)c2)on1 [(S)-1-(3,4-Difluoro-benzyl)-pyrrolidine-2-carboxylic acid (3-tert-butyl-isoxazol-5-yl)-amide]	0.208
CC(C)(C)c1cc(NC(=O)[C@@H]2CCCN2CC2CCCOC2)on1 (stereo partly drawn) [(S)-1-(Tetrahydro-pyran-3-ylmethyl)-pyrrolidine-2-carboxylic acid (3-tert-butyl-isoxazol-5-yl)-amide]	0.376
O=C(Nc1ccc(C(F)(F)F)cn1)[C@@H]1CCCN1c1ccc(C(F)(F)F)cc1 [(S)-1-(4-Trifluoromethyl-phenyl)-pyrrolidine-2-carboxylic acid (5-trifluoromethyl-pyridin-2-yl)-amide]	15.5
CC(C)(C)c1cc(NC(=O)[C@@H]2CCCN2Cc2ccc(OC(F)F)cc2)on1 [(S)-1-(4-Difluoromethoxy-benzyl)-pyrrolidine-2-carboxylic acid (3-tert-butyl-isoxazol-5-yl)-amide]	8.04
Cc1cc(N2C(=O)CC[C@H]2C(=O)Nc2cc(C(C)(C)C)no2)ccc1Cl [(S)-1-(4-Chloro-3-methyl-phenyl)-5-oxo-pyrrolidine-2-carboxylic acid (3-tert-butyl-isoxazol-5-yl)-amide]	23.7
O=C(NCCN1CCN(c2nccc(C(F)(F)F)n2)CC1)[C@@H]1CCCN1c1ccc(Cl)cc1	381
CC(C)(C)C1CCC(NC(=O)[C@@H]2CCC(=O)N2c2ccc(Cl)cc2)CC1 (stereo partly drawn) [(S)-1-(4-Chloro-phenyl)-5-oxo-pyrrolidine-2-carboxylic acid (4-tert-butyl-cyclohexyl)-amide]	159
O=C(Nc1nc(-c2ccccc2)ns1)[C@@H]1C[C@@H](O)CN1CC1CCOCC1 [(2S,4R)-4-Hydroxy-1-(tetrahydro-pyran-4-ylmethyl)-pyrrolidine-2-carboxylic acid (3-phenyl-1,2,4-thiadiazol-5-yl)-amide]	303
COc1ccc(N2C(=O)CC[C@H]2C(=O)Nc2cc(C(C)(C)C)no2)cc1 [(S)-1-(4-Methoxy-phenyl)-5-oxo-pyrrolidine-2-carboxylic acid (3-tert-butyl-isoxazol-5-yl)-amide]	163
O=C(NCC1CCOCC1)[C@@H]1CCCN1c1ccc(Cl)cc1 [(S)-1-(4-Chloro-phenyl)-pyrrolidine-2-carboxylic acid (tetrahydro-pyran-4-ylmethyl)-amide]	415
CC(C)(C)c1cc(NC(=O)[C@@H]2CCC(=O)N2c2ncc(C(F)(F)F)cc2Cl)no1 [(S)-1-(3-chloro-5-trifluoromethyl-pyridin-2-yl)-5-oxo-pyrrolidine-2-carboxylic acid (5-tert-butyl-isoxazol-3-yl)-amide]	6.5
O=C(Nc1nc(-c2ccccc2)ns1)[C@@H]1C[C@@H](O)CN1c1ccc(C(F)(F)F)cn1 [(2S,4R)-4-Hydroxy-1-(5-trifluoromethyl-pyridin-2-yl)-pyrrolidine-2-carboxylic acid (3-phenyl-1,2,4-thiadiazol-5-yl)-amide]	357
CC(C)(C)c1cc(NC(=O)[C@@H]2CCC(=O)N2c2ccc(C(F)(F)F)cc2)sn1 [(S)-5-Oxo-1-(4-trifluoromethyl-phenyl)-pyrrolidine-2-carboxylic acid (3-tert-butyl-isothiazol-5-yl)-amide]	112

Same assay, conditions: CHO cells expressing human CB2R; inhibition of forskolin-stimulated cAMP synthesis; mean; read-out: CB2 CAMP @ EC50 nM (mean)

Structure (SMILES)	EC50 [nM]
O=C(NCC1CCCCC1)[C@@H]1C[C@@H](O)CN1C(=O)C1CCC(F)(F)CC1 [(2S,4R)-1-(4,4-Difluoro-cyclohexanecarbonyl)-4-hydroxy-pyrrolidine-2-carboxylic acid cyclohexylmethyl-amide]	432
CC(C)(C)OC(=O)CCN1CCC[C@H]1C(=O)Nc1cc(C(C)(C)C)no1 [3-[(S)-2-(3-tert-Butyl-isoxazol-5-ylcarbamoyl)-pyrrolidin-l-yl]-propionic acid tert-butyl ester]	20
COc1ccc(-c2nsc(NC(=O)[C@@H]3CCC(=O)N3c3ccc(C(F)(F)F)cc3)n2)cc1 [(S)-5-Oxo-1-(4-trifluoromethyl-phenyl)-pyrrolidine-2-carboxylic acid [3-(4-methoxy-phenyl)-1,2,4-thiadiazol-5-yl]-amide]	178
O=C(Nc1nc2cc(Cl)ccc2[nH]1)[C@@H]1CCC(=O)N1c1ccc(Cl)cc1 [(S)-1-(4-Chloro-phenyl)-5-oxo-pyrrolidine-2-carboxylic acid (5-chloro-1H-benzimidazol-2-yl)-amide]	255
